Source: patent publication EP4265127A1, “WATER-SOLUBLE EMULSION COMPOSITION CONTAINING NATURAL POLYPHENOL COMPOUND” (Yun, Kwan Sik, priority 2020, dated 2022)

Experiment: Water solubility confirmation (organic material content quantified by Karl Fisher method)
Format: physicochemical
Protocol: According to the composition shown in Tables 38 to 61, the water-soluble antioxidant emulsion was added to the natural polyphenol compound emulsion, and then mixing and dispersing were performed at 500 rpm or less while checking the properties of the emulsion to prepare an natural polyphenol compound-containing water-soluble emulsion composition containing a water-soluble antioxidant emulsion. […] After 1 hour of centrifugation and filtering, an organic material content was quantified by measuring a water content using a Karl Fisher method.

SMILES	Water solubility
O=c1cc(-c2ccccc2)oc2cc(O)c(O)c(O)c12 [Generic Powdered Baicalein]	0.00%
COc1ccc([C@@H]2CC(=O)c3c(O)cc(O[C@@H]4O[C@H](CO[C@@H]5O[C@@H](C)[C@H](O)[C@@H](O)[C@H]5O)[C@@H](O)[C@H](O)[C@H]4O)cc3O2)cc1O [Generic powdered Hesperidin]	0.00%
O=c1c(O)c(-c2ccc(O)c(O)c2)oc2cc(O)cc(O)c12 [Generic powdered Quercetin]	0.00%
O=C1C[C@@H](c2ccc(O)cc2)Oc2cc(O)cc(O)c21 [Generic Powdered Naringenin]	0.04%

Other lines, results leading:

Water solubility	SMILES
0.00%	Oc1ccc(/C=C/c2cc(O)cc(O)c2)cc1 [Generic Powdered Resveratrol]
0.01%	O=c1c(O)c(-c2ccc(O)cc2)oc2cc(O)cc(O)c12 [Generic Powdered kaempferol]
0.02%	O=c1cc(-c2ccc(O)c(O)c2)oc2cc(O)cc(O)c12 [Generic Powdered Luteolin]
0.00%	COc1cc(/C=C/C(=O)CC(=O)/C=C/c2ccc(O)c(OC)c2)ccc1O [Generic Powdered Curcumin]
